Results from patent US6379563B1, “Alkylamines as biofilm deactivation agents” (Albemarle Corporation, priority 2000, dated 2002).
Like-named read-outs stand apart in the source and are kept apart here.

Key:
[1] = tested on: Pseudomonas aeruginosa (ATCC 15442) biofilms; experiment: MBEC test, 24-hour biofilm, one hour biocide challenge;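 on all read-outs here: Peg-grown biofilms exposed to biocide, then regrowth in broth 18 h at 35 °C, turbidity by absorbance at 650 nm, above 0.100 counted as growth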; assay type: cell-based; conditions: for minimum biofilm eradication concentration (MBEC) / MBC: Pseudomonas aeruginosa, ATCC15442, 1 h; for minimum biofilm eradication concentration (MBEC) / biofilm deactivation at 200 ppm (regrowth optical density measurements) / MBEC, avg. / MBEC, ppm (first of duplicate runs) / MBEC, ppm (second of duplicate runs): 24-hour biofilm, 1 hour contact
Excerpt: The MBEC technique consists of growing identical 24-hour biofilms on 96 pegs arrayed in 12 rows and 8 columns. The biofilms then are challenged with decreasing concentrations of selected antibiotics and/or biocides. After a certain challenge time (generally one hour), the biofilms are placed in 96 individual wells of growth media and ultra-sonicated to deactivate any surviving organisms. After culturing overnight, the wells are checked for turbidity. Clear, transparent wells indicate complete deactivation of the biofilm. Conversely, turbidity (“growth”) indicates lack of complete deactivation of the biofilm.
The minimum biofilm deactivation concentration (MBEC) is defined as the minimum concentration of an agent that completely deactivates biofilm bacteria. […] Unless otherwise indicated, the biofilms used in the examples below consisted of a pure culture of Pseudomonas aeruginosa (ATCC 15442).
Pseudomonas aeruginosa (ATCC 15442) biofilms were prepared on the 96 pegs of the MBEC plate by aerobic incubation in simple salts medium with 0.1% glucose (24 hours, 35° C.). The pegs were rinsed in synthetic water (SW) and then challenged by the biocide for one hour. Following the biocide challenge, the pegs were rinsed twice with SW and then sonicated into Mueller-Hinton broth (225 μL per well). The broth was then incubated for 18 hours at 35° C.

[2] = tested on: 7-day biofilm formed using P. aeruginosa; experiment: MBEC test, 7-day biofilm, one hour biocide challenge; assay type: cell-based, Pseudomonas aeruginosa; conditions: 1 hour contact; for MBEC, avg., Example 4 / MBEC, ppm (first of duplicate runs), Example 4 / MBEC, ppm (second of duplicate runs), Example 4: Example 4, ppm oxidant (as Cl2) or ppm active
Excerpt: The MBEC technique consists of growing identical 24-hour biofilms on 96 pegs arrayed in 12 rows and 8 columns. The biofilms then are challenged with decreasing concentrations of selected antibiotics and/or biocides. After a certain challenge time (generally one hour), the biofilms are placed in 96 individual wells of growth media and ultra-sonicated to […] any surviving organisms. After culturing overnight, the wells are checked for turbidity. Clear, transparent wells indicate complete deactivation of the biofilm. Conversely, turbidity (“growth”) indicates lack of complete deactivation of the biofilm.
After the 18 hour incubation period, the recovery wells were checked for turbidity. Clear, transparent wells indicated complete deactivation of the biofilm. Conversely, turbidity indicated the lack of complete deactivation of the biofilm. The minimum biofilm deactivation concentration (MBEC) is defined as the minimum concentration of agent which results in complete deactivation of the biofilm. MBEC endpoints were unambiguously determined by absorbance at 650 nm. using UV visible spectroscopy. An absorbance >0.100 was considered a positive indication of growth.
Pseudomonas aeruginosa (ATCC 15442) biofilms were prepared as described in Example I. The 7-day biofilms were prepared by a modification of the above procedure. Each day, spent media was replaced with fresh media and inocula.
Older biofilms offer increased resistance to biocides. Studies were extended to 7-day biofilms formed using P. aeruginosa. The procedure used to form the 7-day biofilm was the same as in Example 1, except that each day, spent media was replaced with fresh media and inocula. This biofilm was then challenged with oxidizing and non-oxidizing biocides.
Another 7-day biofilm was prepared from P. aeruginosa, as in EXAMPLE 3. This biofilm was then challenged with several common oxidizing and non-oxidizing biocides.

[3] = from Bodor, Gabanyi, Wang, JACS 111, 3783 (1989); cited from earlier work
[4] = average of duplicate runs, blends: total amount of components (1:1 ratio), read-out: MBEC, avg.
[5] = blends: total amount of components (1:1 ratio), read-out: MBEC, ppm (first of duplicate runs)
[6] = blends: total amount of components (1:1 ratio), read-out: MBEC, ppm (second of duplicate runs)
[7] = blends: total biocide, read-out: MBEC
[8] = read-out: MBEC, avg., 24-hour biofilm, 1 hour contact, average of duplicate runs, blends: total amount of components (1:1 ratio)
[9] = read-out: MBEC, ppm (second of duplicate runs), 24-hour biofilm, 1 hour contact, blends: total amount of components (1:1 ratio)
[10] = Example 3, ppm oxidant (as Cl2) or ppm active
[11] = read-out: MBEC, ppm (first of duplicate runs), 24-hour biofilm, 1 hour contact, blends: total amount of components (1:1 ratio)
[12] = average of duplicate runs, blends: total amount of components (1:1 ratio)
[13] = blends: total amount of components (1:1 ratio)

SMILES	minimum biofilm eradication concentration (MBEC) [1, 4]	minimum biofilm eradication concentration (MBEC) [1, 5]	minimum biofilm eradication concentration (MBEC) [1, 6]	minimum biofilm eradication concentration (MBEC) [1, 7]	further results
CCCCCCCCCCCCCCCCN [1-Hexadecylamine]	200 µg/mL	200 µg/mL	200 µg/mL	200 µg/mL	
CCCCCCCCCC[N+](C)(C)CCCCCCCCCC.[Cl-] [DAQ 1010, Didecyldimethyl ammonium chloride]					MBC ([1]; read-out: MBEC, 24-hour biofilm, 1 hour contact, blends: total biocide): ~38 µg/mL; MBC [1, 8]: 50 µg/mL; MBC [1, 9]: 25 µg/mL; MBEC on 7-day biofilm [2]: 75 ppm; MBEC, avg., Example 4 [2]: 75 ppm; MBEC, ppm (first of duplicate runs), Example 4 [2]: 100 ppm; MBEC, ppm (second of duplicate runs), Example 4 [2]: 50 ppm
CCCCCCCCCCCCCCN(C)C [N,N-Dimethyltetradecylamine]	> 200 µg/mL	> 200 µg/mL	> 200 µg/mL	400 to 800 µg/mL	biofilm deactivation at 200 ppm (regrowth optical density measurements) [1]: evidence of biofilm deactivation
CCCCCCCCCCCCCCCCN(C)C [N,N-Dimethylhexadecylamine]	> 200 µg/mL	> 200 µg/mL	> 200 µg/mL	400 to 800 µg/mL	biofilm deactivation at 200 ppm (regrowth optical density measurements) [1]: evidence of biofilm deactivation
CCCCCCCCN [1-Octylamine]	400 µg/mL	400 µg/mL	400 µg/mL	400 µg/mL	
O=CCCCC=O [glutaraldehyde, reference compound]	50 µg/mL	50 µg/mL	50 µg/mL	50 to 100 µg/mL	MBEC on 7-day biofilm [2]: about 200 ppm; MBEC, avg., Example 3 [2, 10]: ˜200 ppm; MBEC, ppm (first of duplicate runs), Example 3 [2, 10]: 100 ppm; MBEC, ppm (second of duplicate runs), Example 3 [2, 10]: > 200 ppm
CCCCN [1-Butylamine]					logKow experimental [3]: 0.87
O=c1n(Cl)c(=O)n(Cl)c(=O)n1Cl [Cl2 (from Trichlor), trichloroisocyanuric acid]					MBEC on 7-day biofilm [2]: 20 ppm; MBEC, ppm (first of duplicate runs), Example 3 [2, 10]: 5 ppm; MBEC, ppm (second of duplicate runs), Example 3 [2, 10]: > 10 ppm; MBEC, avg., Example 4 [2]: 20 ppm; MBEC, ppm (first of duplicate runs), Example 4 [2]: 20, 20 ppm; MBEC, ppm (second of duplicate runs), Example 4 [2]: 20, 20 ppm
CCCCCCCCCCCCN(C)C [N,N-Dimethyldodecylamine]					MBC [1, 8]: > 200 µg/mL; MBC [1, 11]: > 200 µg/mL; MBC [1, 9]: > 200 µg/mL
CCCCN(C)C [N,N-Dimethylbutylamine]					logKow experimental [3]: 1.70
CCCCCCCCCCN(C)C [N,N-Dimethyldecylamine]	> 400 µg/mL	> 400 µg/mL	> 400 µg/mL		
CCCCCCN(C)CCCCCC [CH3(C6H13)2N]					MBEC, avg. [1, 12]: >800 ppm; MBEC, ppm (first of duplicate runs) [1, 13]: >800, >800 ppm; MBEC, ppm (second of duplicate runs) [1, 13]: >800, >800 ppm
CCCCCCCCN(C)CCCCCCCC [CH3(C8H17)2N, Dioctylmethylamine]	800 µg/mL	800 µg/mL	800 µg/mL	800 µg/mL	
CCCCCCCCCCN(C)CCCCCCCCCC [DAMA 1010 Amine, didecylmethylamine]	400 µg/mL	400 µg/mL	400 µg/mL	400 µg/mL	
CCCCCCCCN(C)C [N,N-Dimethyloctylamine]	> 800 µg/mL	> 800 µg/mL	> 800 µg/mL		
CCCCNCCCC [N,N-Dibutylamine]	> 1600 µg/mL	> 1600 µg/mL	> 1600 µg/mL		logKow experimental [3]: 2.76
CCCCCCCCCCCCCCN [1-Tetradecylamine]	25 µg/mL	25 µg/mL	25 µg/mL	25 µg/mL	
CCCCCCN [1-Hexylamine]	1600 µg/mL	1600 µg/mL	1600 µg/mL		
CCCCCCCCCCN [1-Decylamine]	200 µg/mL	200 µg/mL	200 µg/mL	200 µg/mL	
CCCCCCCCNCCCCCCCC [N,N-Dioctylamine]	1600 µg/mL	1600 µg/mL	1600 µg/mL	1600 µg/mL	
CCCCN(C)CCCC [CH3(C4H9)2N]					MBEC, avg. [1, 12]: >800 ppm; MBEC, ppm (first of duplicate runs) [1, 13]: >800, >800 ppm; MBEC, ppm (second of duplicate runs) [1, 13]: >800, >800 ppm
OC[P+](CO)(CO)CO.[Cl-] [THPC, tetrakis(hydroxymethyl)phosphonium chloride, reference compound]					MBC [1, 8]: 100 µg/mL; MBC [1, 11]: 100 µg/mL; MBC [1, 9]: 100 µg/mL
CCCCCCCCCCCCN [1-Dodecylamine]	25 µg/mL	25 µg/mL	25 µg/mL	~38 µg/mL	MBEC on 7-day biofilm [2]: 75 ppm; MBEC, avg., Example 4 [2]: 75 ppm; MBEC, ppm (first of duplicate runs), Example 4 [2]: 100 ppm; MBEC, ppm (second of duplicate runs), Example 4 [2]: 50 ppm
